This passage reports Critical pressure and Critical temperature results from the NIST ThermoML archive (doi:10.1021/je0498356).

Numbers after ± are expanded uncertainties.

The conditions of this series: Liquid.
Turning to `O=C(O)CCCC(=O)O` [1,5-pentanedioic acid], the Critical pressure came to 4270 ± 200 kPa and the Critical temperature worked out at 840 ± 13 K.
Taken in the same sequence, the figures for `O=C(O)CCCCC(=O)O` [1,6-hexanedioic acid] were 3850 ± 150 kPa and 841 ± 13 K.
For the molecule `O=C(O)CCCCCC(=O)O` [1,7-heptanedioic acid], the Critical pressure turned out to be 3280 ± 130 kPa and the Critical temperature turned out to be 842 ± 13 K.
On the same counts, the results for `O=C(O)CCCCCCC(=O)O` [1,8-octanedioic acid] are 2970 ± 120 kPa and 843 ± 13 K.
For the molecule `O=C(O)CCCCCCCC(=O)O` [1,9-nonanedioic acid], the Critical pressure came to 2720 ± 110 kPa and the Critical temperature came to 844 ± 13 K.
Taken in the same sequence, the figures for `O=C(O)CCCCCCCCC(=O)O` [1,10-decanedioic acid] were 2500 ± 100 kPa and 845 ± 13 K.
Turning to `O=C(O)CCCCCCCCCCCCC(=O)O` [1,12-dodecanedicarboxylic acid], the Critical pressure was found to be 1900 ± 80 kPa and the Critical temperature came out at 862 ± 13 K.
Take `O=C(O)CCCCCCCCCCC(=O)O` [1,12-dodecanedioic acid]: the Critical pressure was 2150 ± 90 kPa and the Critical temperature is reported as 859 ± 13 K.
Take `O=C(O)CCC(=O)O` [butanedioic acid]: the Critical pressure is listed as 6590 ± 300 kPa and the Critical temperature is reported as 851 ± 20 K.
